From patent publication US10125453B2, “Antimicrobial textile products and method of obtaining thereof” (YEDITEPE ÜNIVERSITESI, priority 2013, dated 2018)

Key:
Format in all cases: cell-based
Parameters in all cases: key: +: inhibition zones against the tested microorganisms were observed; −: inhibition zones were not detected
Aspergillus spp. = assay: standard NCCLS disc diffusion method, Aspergillus spp.; settings: 100 u/disc, PDA, 25±1° C., 72 hours
Experimental: (§1) Antimicrobial properties of the textile products loaded with impregnation solution were examined by using standard NCCLS disc diffusion method (Lalitha, 2005). Briefly, the 100 μl solution including 10^8 cfu/ml bacteria, 10^6 cfu/ml yeast, and 10^4 spor/ml fungus was prepared with new cultures and inoculated with spreading method on Trypticase soy agar (TSA), Sabouraud Dextrose Agar (SDA), and Potato Dextrose Agar (PDA), respectively. The sections of approximately 1×1 cm, which were cut out from the textile products loaded with the impregnation solution comprising the stated concentrations of triclosan, chlorhexidine and disodium octaborate pentahydrate, were placed on inoculated petri dishes. Empty textile products which were not loaded with impregnation solution were used as negative control. As positive control, Ofloxacin (5 μg/disc) was used for bacteria and Nystatin (100 u/disc) was used for yeasts and fungi. The petri dishes, which were inoculated and on which textile products were placed, were kept at 36±1° C. for bacteria for 24 hours and 48 hours for yeasts and at 25±1° C. for fungi for 72 hours. Antimicrobial activity against microorganisms tested in standard disc diffusion method was assessed by measuring the inhibition zone. All tests were repeated at least twice.

Penicillium spp. = assay: standard NCCLS disc diffusion method, Penicillium spp.; settings: 100 u/disc, PDA, 25±1° C., 72 hours
Experimental: as §1

Candida spp. = assay: standard NCCLS disc diffusion method, Candida spp.; settings: 100 u/disc, SDA, 36±1° C., 48 hours
Experimental: as §1

Pseudomonas aeruginosa = assay: standard NCCLS disc diffusion method, Pseudomonas aeruginosa; settings: TSA, 36±1° C., 24 hours
Experimental: as §1, with “As positive control, Ofloxacin (5 μg/disc) was used for bacteria and Nystatin (100 u/disc) was used for yeasts and fungi.” left out

Staphylococcus aureus = assay: standard NCCLS disc diffusion method, Staphylococcus aureus; settings: 10 μg/disc, TSA, 36±1° C., 24 hours
Experimental: as §1, with “As positive control, Ofloxacin (5 μg/disc) was used for bacteria and Nystatin (100 u/disc) was used for yeasts and fungi.” left out

MRSA = assay: standard NCCLS disc diffusion method, MRSA; settings: TSA, 36±1° C., 24 hours
Experimental: as §1, with “As positive control, Ofloxacin (5 μg/disc) was used for bacteria and Nystatin (100 u/disc) was used for yeasts and fungi.” left out

Escherichia coli = assay: standard NCCLS disc diffusion method, Escherichia coli; settings: TSA, 36±1° C., 24 hours
Experimental: as §1, with “As positive control, Ofloxacin (5 μg/disc) was used for bacteria and Nystatin (100 u/disc) was used for yeasts and fungi.” left out

Measured: In vitro antimicrobial test result (inhibition zone), positive control

C[C@@H]1[C@H](O)[C@@H](C)/C=C/C=C/CC/C=C/C=C/C=C/C=C/C(O[C@H]2O[C@H](C)[C@@H](O)[C@H](N)[C@@H]2O)CC2O[C@](O)(CC(O)C(O)CCC(O)CC(O)CC(O)CC(=O)O[C@H]1C)CC(O)C2C(=O)O (stereo partly shown) [Nystatin]
+: Aspergillus spp. | Penicillium spp. | Candida spp.

CC1COc2c(N3CCN(C)CC3)c(F)cc3c(=O)c(C(=O)O)cn1c23 (stereo not shown) [Ofloxacin]
+: Pseudomonas aeruginosa | Staphylococcus aureus | MRSA | Escherichia coli
